Laboratory results taken from US10329278B2, “Pharmaceutical compounds” (Heptares Therapeutics Limited, priority 2017, dated 2019).

How the values were obtained:
Assay type in all cases: cell-based
[1] = biological target: T1, human muscarinic M3 receptor (Homo sapiens, UniProt P20309); experiment: Alphascreen Surefire phospho-ERK1/2 functional assay, M3; details: for EC50 / pEC50 M3 / % Emax cf. ACh (M3): CHO cells stably expressing human M3; for EC50 / pEC50 M3: agonist 5 min, 37° C.; for EC50: read-out: pEC50 M3 (converted); for Emax: CHO, read-out: % Emax cf. ACh (M3); for % Emax cf. ACh (M3): relative to ACh
T1 construct: expressed in transfected cells
T1 sequence (P20309 whole entry): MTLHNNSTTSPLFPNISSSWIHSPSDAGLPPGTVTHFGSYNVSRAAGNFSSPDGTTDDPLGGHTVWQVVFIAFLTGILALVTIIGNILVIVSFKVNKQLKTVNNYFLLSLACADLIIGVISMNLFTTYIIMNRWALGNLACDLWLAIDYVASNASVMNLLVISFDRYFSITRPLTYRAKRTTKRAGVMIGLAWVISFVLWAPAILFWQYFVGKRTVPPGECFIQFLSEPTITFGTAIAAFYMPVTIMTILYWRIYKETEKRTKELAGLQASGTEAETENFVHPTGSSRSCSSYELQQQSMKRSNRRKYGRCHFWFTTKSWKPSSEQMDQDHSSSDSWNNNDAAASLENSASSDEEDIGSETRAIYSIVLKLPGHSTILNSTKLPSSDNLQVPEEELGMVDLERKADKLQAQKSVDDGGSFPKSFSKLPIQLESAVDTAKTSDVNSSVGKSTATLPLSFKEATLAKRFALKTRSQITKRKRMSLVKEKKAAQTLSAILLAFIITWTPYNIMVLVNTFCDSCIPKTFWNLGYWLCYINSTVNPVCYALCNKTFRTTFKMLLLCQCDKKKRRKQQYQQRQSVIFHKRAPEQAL
Description: (§1) ERK1/2 phosphorylation is a downstream consequence of both Gq/11 and Gi/o protein coupled receptor activation, making it highly suitable for the assessment of M1, M3 (Gq/11 coupled) and M2, M4 receptors (Gi/o coupled), rather than using different assay formats for different receptor subtypes. CHO cells stably expressing the human muscarinic M1, M2, M3 or M4 receptor were plated (25K/well) onto 96-well tissue culture plates in MEM-alpha+10% dialysed FBS. Once adhered, cells were serum-starved overnight. Agonist stimulation was performed by the addition of 5 μL agonist to the cells for 5 min (37° C.). Media was removed and 50 μL of lysis buffer added. After 15 min, a 4 μL sample was transferred to 384-well plate and 7 μL of detection mixture added.

[2] = biological target: T2, human muscarinic M1 receptor (Homo sapiens, UniProt P11229); experiment: Alphascreen Surefire phospho-ERK1/2 functional assay, M1; details: for EC50 / % Emax cf. ACh (M1) / pEC50 M1: CHO cells stably expressing human M1; for EC50 / pEC50 M1: agonist 5 min, 37° C.; for EC50: read-out: pEC50 M1 (converted); for Emax: CHO, read-out: % Emax cf. ACh (M1), CHO cells stably expressing human M1; for Emax / % Emax cf. ACh (M1): relative to ACh
T2 sequence (P11229 1-460): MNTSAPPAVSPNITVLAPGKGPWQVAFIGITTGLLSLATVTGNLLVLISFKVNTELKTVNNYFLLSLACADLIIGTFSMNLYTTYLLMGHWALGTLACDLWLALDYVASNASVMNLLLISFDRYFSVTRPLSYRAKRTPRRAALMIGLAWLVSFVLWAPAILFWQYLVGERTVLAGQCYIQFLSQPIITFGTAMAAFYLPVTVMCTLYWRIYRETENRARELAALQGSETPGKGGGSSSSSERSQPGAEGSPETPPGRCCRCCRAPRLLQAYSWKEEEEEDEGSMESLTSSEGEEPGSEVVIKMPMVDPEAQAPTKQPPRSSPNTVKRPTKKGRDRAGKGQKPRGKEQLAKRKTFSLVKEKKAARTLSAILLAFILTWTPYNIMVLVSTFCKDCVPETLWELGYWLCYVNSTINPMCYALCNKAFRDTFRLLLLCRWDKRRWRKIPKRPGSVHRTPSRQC
Description: as §1

[3] = biological target: T3, human muscarinic M2 receptor (Homo sapiens, UniProt P08172); experiment: Alphascreen Surefire phospho-ERK1/2 functional assay, M2; details: for EC50 / pEC50 M2 / % Emax cf. ACh (M2): CHO cells stably expressing human M2; for EC50 / pEC50 M2: agonist 5 min, 37° C.; for EC50: read-out: pEC50 M2 (converted); for Emax: CHO, read-out: % Emax cf. ACh (M2); for % Emax cf. ACh (M2): relative to ACh
T3 sequence (P08172 1-466): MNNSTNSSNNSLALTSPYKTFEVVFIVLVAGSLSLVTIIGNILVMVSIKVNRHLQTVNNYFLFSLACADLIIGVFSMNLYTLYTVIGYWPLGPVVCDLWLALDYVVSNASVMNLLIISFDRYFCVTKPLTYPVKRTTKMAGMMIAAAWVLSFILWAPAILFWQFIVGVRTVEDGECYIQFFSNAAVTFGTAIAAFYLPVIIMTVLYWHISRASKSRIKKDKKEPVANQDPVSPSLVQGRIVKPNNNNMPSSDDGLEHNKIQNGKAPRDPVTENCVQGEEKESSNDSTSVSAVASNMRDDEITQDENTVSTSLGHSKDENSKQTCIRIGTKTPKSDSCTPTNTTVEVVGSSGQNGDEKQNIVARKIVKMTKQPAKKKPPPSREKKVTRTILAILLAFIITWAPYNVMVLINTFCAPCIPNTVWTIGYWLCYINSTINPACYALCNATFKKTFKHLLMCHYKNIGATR
Description: as §1

[4] = biological target: T4, human muscarinic M4 receptor (Homo sapiens, UniProt P08173); experiment: Alphascreen Surefire phospho-ERK1/2 functional assay, M4; details: for EC50 / % Emax cf. ACh (M4) / pEC50 M4: CHO cells stably expressing human M4; for EC50 / pEC50 M4: agonist 5 min, 37° C.; for EC50: read-out: pEC50 M4 (converted); for Emax: CHO, read-out: % Emax cf. ACh (M4), CHO cells stably expressing human M4; for Emax / % Emax cf. ACh (M4): relative to ACh
T4 construct: expressed in transfected cells
T4 sequence (P08173 1-479): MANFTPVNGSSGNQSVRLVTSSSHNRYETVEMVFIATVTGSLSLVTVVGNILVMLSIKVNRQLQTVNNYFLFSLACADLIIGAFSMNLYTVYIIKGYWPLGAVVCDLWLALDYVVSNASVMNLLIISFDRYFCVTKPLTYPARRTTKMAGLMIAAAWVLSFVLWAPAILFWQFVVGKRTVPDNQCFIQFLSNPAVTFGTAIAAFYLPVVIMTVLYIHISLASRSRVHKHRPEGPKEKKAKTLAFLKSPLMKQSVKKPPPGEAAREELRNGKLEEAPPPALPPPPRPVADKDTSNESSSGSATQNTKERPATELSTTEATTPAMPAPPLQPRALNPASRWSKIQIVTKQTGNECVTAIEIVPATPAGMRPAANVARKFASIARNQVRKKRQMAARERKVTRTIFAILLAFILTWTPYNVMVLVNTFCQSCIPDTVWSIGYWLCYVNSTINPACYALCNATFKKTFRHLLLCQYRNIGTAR
Description: as §1

What does the source list for CCOC(=O)C1C2CN(C3CC4(CCN(C(=O)OCC)C4)C3)CC21 (mixture of isomers) [2-1 Mixture of isomers]?
EC50 [1]: > 20000 nM; Emax [1]: 0%; EC50 [2]: > 20000 nM; Emax [2]: 22%; EC50 [3]: > 20000 nM; Emax [3]: 7%; EC50 [4]: 77.6 nM; Emax [4]: 86%

Which EC50 [1] does the source give for CCOC(=O)N1CCC2(CC(N3CC4C(C3)C4C(=O)N3CCC34CC4)C2)C1 (single isomer, unassigned) [2-19 Isomer 2] here?
Its EC50 is > 20000 nM.

And the Emax [1]?
The Emax was 35%.

And the EC50 [2]?
The EC50 was 13.2 nM.

And the Emax [2]?
Its Emax is 93%.

What about the EC50 [3] of the same molecule?
The EC50 was > 20000 nM.

And the Emax [3]?
The Emax was 16%.

And the EC50 [4]?
Its EC50 is 37.2 nM.

And the Emax [4]?
Its Emax is 95%.

What does the source list for CCOC(=O)N1CCC2(CC(N3CC4C(C3)C4C(CC)=NOC)C2)C1 (single isomer, unassigned) [2-25 Isomer 4]?
EC50 [1]: > 20000 nM; Emax [1]: 4%; EC50 [2]: 324 nM; % Emax cf. ACh (M1) [2]: 65%; EC50 [3]: > 20000 nM; Emax [3]: 24%; EC50 [4]: 151 nM; % Emax cf. ACh (M4) [4]: 48%

How did the EC50 [1] turn out when CCOC(=O)N1CCC2(CC(N3CC4C(C3)C4OC(C)c3ccccc3)C2)C1 (single isomer, unassigned) [2-28 Isomer 2] was run?
Its EC50 is > 20000 nM.

What about the Emax [1] of the same molecule?
The Emax was 5%.

And the EC50 [2]?
The EC50 was 64.6 nM.

What about the “% Emax cf. ACh (M1)” value [2] of the same molecule?
Its value is 104%.

What about the EC50 [3] of the same molecule?
The EC50 was > 20000 nM.

What about the Emax [3] of the same molecule?
Its Emax is 7%.

And the EC50 [4]?
The EC50 was 53.7 nM.

What about the “% Emax cf. ACh (M4)” value [4] of the same molecule?
Its value is 51%.

CCOC(=O)N1CCC2(CC(N3C[C@@H]4[C@H](C3)[C@H]4c3ccnn3C)C2)C1 (single isomer, unassigned) [2-29 Isomer 2] was tested. Which EC50 [1] did it give?
The EC50 was > 20000 nM.

What about the Emax [1] of the same molecule?
The Emax was 2%.

And the EC50 [2]?
Its EC50 is 646 nM.

What about the Emax [2] of the same molecule?
Its Emax is 43%.

And the EC50 [3]?
Its EC50 is > 20000 nM.

What about the Emax [3] of the same molecule?
Its Emax is 36%.

What about the EC50 [4] of the same molecule?
Its EC50 is 87.1 nM.

And the Emax [4]?
The Emax was 83%.

With CCOC(=O)N1C2CCCC1CC(N1CC3C(C1)C3C(=O)N(C)CC)C2 (single isomer, unassigned; isomer 1) [9-1 Isomer 1] as the molecule, how does the “pEC50 M3” value [1] read?
Its value is < 4.70.

What about the “% Emax cf. ACh (M3)” value [1] of the same molecule?
The value was 21%.

And the “pEC50 M1” value [2]?
The value was 7.04.

And the “% Emax cf. ACh (M1)” value [2]?
The value was 93%.

And the “pEC50 M2” value [3]?
Its value is < 4.70.

What about the “% Emax cf. ACh (M2)” value [3] of the same molecule?
The value was 19%.

And the “pEC50 M4” value [4]?
Its value is 6.06.

What about the “% Emax cf. ACh (M4)” value [4] of the same molecule?
Its value is 57%.

For CCOC(=O)N1C2COCC1CC(N1CC3C(C1)C3C(=O)N1CCOCC1)C2 (single isomer, unassigned; isomer 1) [10-13 Isomer 1], which “pEC50 M3” value [1] is on record?
The value was < 4.70.

And the “% Emax cf. ACh (M3)” value [1]?
Its value is 68%.

What about the “pEC50 M1” value [2] of the same molecule?
The value was 6.51.

And the “% Emax cf. ACh (M1)” value [2]?
The value was 104%.

What about the “pEC50 M2” value [3] of the same molecule?
The value was < 4.70.

What about the “% Emax cf. ACh (M2)” value [3] of the same molecule?
Its value is 24%.

And the “pEC50 M4” value [4]?
Its value is 5.95.

And the “% Emax cf. ACh (M4)” value [4]?
The value was 64%.

How did the “pEC50 M3” value [1] turn out when CCOC(=O)N1C2COCC1CC(N1CC3C(C1)C3C(=O)N(CC)CC)C2 (single isomer, unassigned; isomer 2) [10-2 Isomer 2] was run?
Its value is < 4.70.

What about the “% Emax cf. ACh (M3)” value [1] of the same molecule?
The value was 10%.

What about the “pEC50 M1” value [2] of the same molecule?
Its value is 7.15.

What about the “% Emax cf. ACh (M1)” value [2] of the same molecule?
The value was 113%.

And the “pEC50 M2” value [3]?
The value was < 4.70.

And the “% Emax cf. ACh (M2)” value [3]?
Its value is 25%.

And the “pEC50 M4” value [4]?
The value was 6.04.

And the “% Emax cf. ACh (M4)” value [4]?
The value was 62%.

Which “pEC50 M3” value [1] does the source give for CCOC(=O)N1C2COCC1CC(N1CC3C(C1)C3C(=O)N1CCOCC1)C2 (single isomer, unassigned; isomer 2) [10-13 Isomer 2] here?
The value was < 4.70.

And the “% Emax cf. ACh (M3)” value [1]?
Its value is 22%.

And the “pEC50 M1” value [2]?
The value was 6.43.

And the “% Emax cf. ACh (M1)” value [2]?
Its value is 101%.

What about the “pEC50 M2” value [3] of the same molecule?
Its value is < 4.70.

What about the “% Emax cf. ACh (M2)” value [3] of the same molecule?
Its value is 24%.

What about the “pEC50 M4” value [4] of the same molecule?
Its value is 4.99.

And the “% Emax cf. ACh (M4)” value [4]?
Its value is 59%.

Which EC50 [1] does the source give for CCOC(=O)[C@H]1[C@@H]2CN(C3CC4(C3)CN(C(=O)OCC)C4)C[C@@H]21 [Example 1-1, ethyl 6-[(1R,5S,6r)-6-(ethoxycarbonyl)-3-azabicyclo[3.1.0]hex-3-yl]-2-azaspiro[3.3]heptane-2-carboxylate] here?
Its EC50 is > 20000 nM.

What about the Emax [1] of the same molecule?
Its Emax is 6%.

And the EC50 [2]?
Its EC50 is 9330 nM.

What about the Emax [2] of the same molecule?
The Emax was 115%.

What about the EC50 [3] of the same molecule?
The EC50 was > 20000 nM.

What about the Emax [3] of the same molecule?
Its Emax is 12%.

What about the EC50 [4] of the same molecule?
The EC50 was 316 nM.

What about the Emax [4] of the same molecule?
Its Emax is 73%.
